Assay results as given in patent US7741493B2, “Heterocyclic compounds as P2X7 ion channel blockers” (Aventis Pharmaceuticals Inc., priority 2003, dated 2010).
Where a name gives a salt, the structure may show the parent alone.

What follows are compounds tested against T1, P2X7 (Homo sapiens, UniProt Q99572) (assay: YO-PRO-1 dye uptake assay in U373 cells stably expressing P2X7). Conditions: IC50 (nM), dye uptake through P2X7, U373 cells, 300 μM BzATP, 5 μM YO-PRO-1, test compounds 30 nM to 3 μM.
T1 sequence (Q99572 1-595): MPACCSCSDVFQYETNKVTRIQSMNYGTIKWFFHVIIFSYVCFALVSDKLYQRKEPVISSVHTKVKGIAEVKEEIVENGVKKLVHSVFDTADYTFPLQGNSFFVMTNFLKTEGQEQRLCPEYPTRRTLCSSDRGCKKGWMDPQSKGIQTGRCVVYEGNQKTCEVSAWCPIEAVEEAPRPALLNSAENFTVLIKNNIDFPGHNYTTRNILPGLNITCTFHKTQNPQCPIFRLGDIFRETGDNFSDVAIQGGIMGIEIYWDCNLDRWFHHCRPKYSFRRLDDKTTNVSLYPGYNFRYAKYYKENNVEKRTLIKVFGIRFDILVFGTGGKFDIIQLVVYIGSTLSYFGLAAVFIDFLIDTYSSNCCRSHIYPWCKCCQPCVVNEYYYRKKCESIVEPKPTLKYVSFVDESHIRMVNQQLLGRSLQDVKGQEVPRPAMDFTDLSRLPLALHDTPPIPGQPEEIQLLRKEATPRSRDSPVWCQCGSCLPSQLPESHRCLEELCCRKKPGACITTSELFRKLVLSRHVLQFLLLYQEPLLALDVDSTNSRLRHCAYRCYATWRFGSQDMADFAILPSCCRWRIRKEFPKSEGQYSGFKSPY
Format: cell-based
Design: The complete open reading frame of human P2X7 was amplified from Incyte clone 148057; expressed in transfected cells
Experimental: Following a 24-hr exposure to DNA, cells were trypsinized and re-seeded at low density in the presence of […] G418. After incubation for 2 weeks, isolated clones were selected with cloning cylinders and replated in […] G418. Cell clones were then expanded. Clones were screened for P2X7 by applying ATP and recording the resultant current using patch clamp electrophysiology.
U373 cells stably expressing P2X7 were used to screen drugs via a dye uptake assay. Cells were plated overnight on collagen coated 96-well plates at a density of 35,000 cells per well. The following day, culture media was replaced with Mg^++ and Ca^++-free Hank's balanced salt solution and various concentrations of test compounds ranging from 30 nM to 3 μM. Cells were then allowed to incubate with test compounds at 37° C. for 20 minutes. Following this incubation period YO-PRO-1 dye (Molecular Probes, Eugene, Oreg., final concentration 5 μM) and 2′-& 3′-O-(4-Benzolybenzoyl)-Adenosine 5′-triphosphate (Sigma Chemical, St Louis, Mo., final concentration 300 μM) were added to the cells sequentially. Cells were then incubated at 37° C. for 1.5 hours. […] Fluorescence in the presence of test substances was compared to that in the absence of test substances (control).
For c1ccc(CCCCC2=N[C@H](c3ccccc3)[C@H](c3ccccc3)N2)cc1 [2-[4-phenyl-butyl]-cis-4,5-diphenyl-4,5-dihydro-1H-imidazole trifluoroacetate], the IC50 was 610 nM.

Same assay, conditions: dye uptake through P2X7, U373 cells, 300 μM BzATP, 5 μM YO-PRO-1, test compounds 30 nM to 3 μM; read-out: IC50
Work on c1ccc(CCC2=N[C@@H](c3ccccc3)[C@@H](c3cccnc3)N2)cc1 (relative stereo) [ditrifluoroacetate] yielded an IC50 of 251 nM.
Work on c1ccc(SCC2=N[C@@H](c3ccccc3)[C@@H](c3cccnc3)N2)cc1 (relative stereo) [ditrifluoroacetate] yielded an IC50 of 866 nM.
CC(C1=N[C@@H](c2ccccc2)[C@@H](c2ccccc2)N1)c1ccc(Cl)cc1 (relative stereo) [trifluoroacetate] showed an IC50 of 423 nM.
For Fc1cccc(CC2=N[C@@H](c3ccccc3)[C@@H](c3ccccc3)N2)c1F [2-(2,3-Difluorobenzyl)-cis-4,5-diphenyl-4,5-dihydro-1H-imidazole trifluoroacetate], the IC50 was 930 nM.
With Fc1cccc([C@H]2NC(Cc3ccc(F)cc3F)=N[C@H]2c2cccc(F)c2)c1 [2-(2,4-Difluorobenzyl)-cis-4,5-bis-(3-fluorophenyl)-4,5-dihydro-1H-imidazole trifluoroacetate] the IC50 was 409 nM.
For Fc1ccc(CC2=N[C@@H](c3ccccc3)[C@@H](c3ccccc3)N2)c(F)c1 [2-(2,4-Difluorobenzyl)-cis-4,5-diphenyl-4,5-dihydro-1H-imidazole trifluoroacetate], the IC50 was 42 nM.
Fc1cccc([C@H]2NC(Cc3ccccc3F)=N[C@H]2c2cccc(F)c2)c1 [2-(2-Fluorobenzyl)-cis-4,5-bis-(3-fluorophenyl)-4,5-dihydro-1H-imidazole trifluoroacetate] gave an IC50 of 449 nM.
Compound Fc1cccc([C@H]2NC(Cc3ccc(F)c(F)c3)=N[C@H]2c2cccc(F)c2)c1 [2-(3,4-Difluorobenzyl)-cis-4,5-bis-(3-fluorophenyl)-4,5-dihydro-1H-imidazole trifluoroacetate] has an IC50 of 79 nM.
Fc1ccc(CC2=N[C@@H](c3ccccc3)[C@@H](c3ccccc3)N2)cc1F [2-(3,4-Difluorobenzyl)-cis-4,5-diphenyl-4,5-dihydro-1H-imidazole trifluoroacetate] gave an IC50 of 24 nM.
Work on Fc1cccc([C@H]2NC(Cc3cccc(Cl)c3)=N[C@H]2c2cccc(F)c2)c1 [2-(3-Chlorobenzyl)-cis-4,5-bis-(3-fluorophenyl)-4,5-dihydro-1H-imidazole trifluoroacetate] yielded an IC50 of 330 nM.
Fc1ccc(CC2=N[C@@H](c3cccc(F)c3)[C@@H](c3cccc(F)c3)N2)cc1 [2-(4-Fluorobenzyl)-cis-4,5-bis-(3-fluorophenyl)-4,5-dihydro-1H-imidazole trifluoroacetate] gave an IC50 of 217 nM.
FC(F)(F)c1ccc(CC2=N[C@@H](c3ccccc3)[C@@H](c3ccccc3)N2)cc1 [2-(4-Trifluoromethylbenzyl)-cis-4,5-diphenyl-4,5-dihydro-1H-imidazole trifluoroacetate] showed an IC50 of 403 nM.
Work on OC(CC1=N[C@@H](c2ccccc2)[C@@H](c2ccccc2)N1)c1ccccc1 (stereo partly drawn) [2-(cis-4,5-diphenyl-4,5-dihydro-1H-imidazol-2-yl)-1-phenylethan-1-ol] yielded an IC50 of 195 nM.
Compound c1ccc(C(CC2=N[C@@H](c3ccccc3)[C@@H](c3ccccc3)N2)c2ccccc2)cc1 [2-[2,2-diphenylethyl]-cis-4,5-diphenyl-4,5-dihydro-1H-imidazole trifluoroacetate] has an IC50 of 320 nM.
With Fc1cccc([C@H]2NC(CCc3ccccc3Cl)=N[C@H]2c2cccc(F)c2)c1 [2-[2-(2-Chlorophenyl)ethyl]-cis-4,5-bis-(3-fluorophenyl)-4,5-dihydro-1H-imidazole] the IC50 was 140 nM.
Compound Clc1ccccc1CCC1=N[C@@H](c2ccccc2)[C@@H](c2ccccc2)N1 [2-[2-(2-Chlorophenyl)ethyl]-cis-4,5-diphenyl-4,5-dihydro-1H-imidazole trifluoroacetate] has an IC50 of 48 nM.
For Fc1cccc([C@H]2NC(CCc3ccccc3F)=N[C@H]2c2cccc(F)c2)c1 [2-[2-(2-Fluorophenyl)ethyl]-cis-4,5-bis-(3-fluorophenyl)-4,5-dihydro-1H-imidazole trifluoroacetate], the IC50 was 304 nM.
Work on Fc1ccccc1CCC1=N[C@@H](c2ccccc2)[C@@H](c2ccccc2)N1 [2-[2-(2-Fluorophenyl)ethyl]-cis-4,5-diphenyl-4,5-dihydro-1H-imidazole trifluoroacetate] yielded an IC50 of 164 nM.
Compound COc1ccccc1CCC1=N[C@@H](c2ccccc2)[C@@H](c2ccccc2)N1 [2-[2-(2-Methoxyphenyl)ethyl]-cis-4,5-diphenyl-4,5-dihydro-1H-imidazole trifluoroacetate] has an IC50 of 832 nM.
In the case of Cc1ccccc1CCC1=N[C@@H](c2cccc(F)c2)[C@@H](c2cccc(F)c2)N1 [2-[2-(2-Methylphenyl)ethyl]-cis-4,5-bis-(3-fluorophenyl)-4,5-dihydro-1H-imidazole trifluoroacetate], the IC50 is reported as 94 nM.
Fc1cccc([C@H]2NC(CCc3ccc(F)c(F)c3)=N[C@H]2c2cccc(F)c2)c1 [2-[2-(3,4-Difluorophenyl)ethyl]-cis-4,5-bis-(3-fluorophenyl)-4,5-dihydro-1H-imidazole] gave an IC50 of 173 nM.
Fc1ccc(CCC2=N[C@H](c3ccccc3)[C@H](c3ccccc3)N2)cc1F [2-[2-(3,4-Difluorophenyl)ethyl]-cis-4,5-diphenyl-4,5-dihydro-1H-imidazole] showed an IC50 of 122 nM.
Clc1cccc(CCC2=N[C@H](c3ccccc3)[C@H](c3ccccc3)N2)c1 [2-[2-(3-Chlorophenyl)ethyl]-cis-4,5-diphenyl-4,5-dihydro-1H-imidazole trifluoroacetate] gave an IC50 of 120 nM.
Compound Fc1cccc(CCC2=N[C@@H](c3cccc(F)c3)[C@@H](c3cccc(F)c3)N2)c1 [2-[2-(3-Fluorophenyl)ethyl]-cis-4,5-bis-(3-fluorophenyl)-4,5-dihydro-1H-imidazole trifluoroacetate] has an IC50 of 79 nM.
Work on Fc1cccc(CCC2=N[C@@H](c3ccccc3)[C@@H](c3ccccc3)N2)c1 [2-[2-(3-Fluorophenyl)ethyl]-cis-4,5-diphenyl-4,5-dihydro-1H-imidazole trifluoroacetate] yielded an IC50 of 31 nM.
For Cc1cccc(CCC2=N[C@@H](c3cccc(F)c3)[C@@H](c3cccc(F)c3)N2)c1 [2-[2-(3-Methylphenyl)ethyl]-cis-4,5-bis-(3-fluorophenyl)-4,5-dihydro-1H-imidazole trifluoroacetate], the IC50 was 385 nM.
Work on Cc1cccc(CCC2=N[C@@H](c3ccccc3)[C@@H](c3ccccc3)N2)c1 [2-[2-(3-Methylphenyl)ethyl]-cis-4,5-diphenyl-4,5-dihydro-1H-imidazole trifluoroacetate] yielded an IC50 of 229 nM.
Fc1ccc(CCC2=N[C@@H](c3cccc(F)c3)[C@@H](c3cccc(F)c3)N2)cc1 [2-[2-(4-Fluorophenyl)ethyl]-cis-4,5-bis-(3-fluorophenyl)-4,5-dihydro-1H-imidazole trifluoroacetate] was tested, and the IC50 was 572 nM.
Work on Fc1ccc(CCC2=N[C@@H](c3ccccc3)[C@@H](c3ccccc3)N2)cc1 [2-[2-(4-Fluorophenyl)ethyl]-cis-4,5-diphenyl-4,5-dihydro-1H-imidazole trifluoroacetate] yielded an IC50 of 218 nM.
Work on c1ccc(CCCC2=N[C@H](c3ccccc3)[C@H](c3ccccc3)N2)cc1 [2-[3-phenyl-propyl]-cis-4,5-diphenyl-4,5-dihydro-1H-imidazole trifluoroacetate] yielded an IC50 of 540 nM.
With Fc1ccc(CSC2=N[C@@H](c3ccccc3)[C@@H](c3ccccc3)N2)c(Cl)c1 [2-[(2-Chloro-4-fluorobenzyl)thio]-cis-4,5-diphenyl-4,5-dihydro-1H-imidazole hydrochloride] the IC50 was 828 nM.
Fc1cccc([C@H]2NC(COc3ccccc3F)=N[C@H]2c2cccc(F)c2)c1 [2-[(2-Fluorophenoxy)methyl]-cis-4,5-bis-(3-fluorophenyl)-4,5-dihydro-1H-imidazole] gave an IC50 of 834 nM.
Fc1cccc([C@H]2NC(CCc3cccs3)=N[C@H]2c2cccc(F)c2)c1 [2-[(2-Thiophen-2-yl)ethyl]-cis-4,5-bis-(3-fluorophenyl)-4,5-dihydro-1H-imidazole trifluoroacetate] gave an IC50 of 592 nM.
c1ccc(COc2ccc(CSC3=N[C@@H](c4ccccc4)[C@@H](c4ccccc4)N3)cc2OCc2ccccc2)cc1 [2-[(3,4-Dibenzyloxybenzyl)thio]-cis-4,5-diphenyl-4,5-dihydro-1H-imidazole hydrochloride] showed an IC50 of 548 nM.
